Converted amounts (≈) assume the structure as drawn. Read-outs that look alike come from different tables or passages of the source.

In experiment [1] the test system is T. cruzi trypomastigotes. As to the kind of experiment: Antiprotozoal activity against T. cruzi (β-galactosidase reporter strain Tulahuen clone C4, in infected Vero cells). The experiment is classed as cell-based. The note with it: Trypanosoma cruzi, 120 h, read-out: IC50 T. cruzi. The protocol:
The evaluation of the antiprotozoal activity against trypanosomes was carried out using the recombinant strain Tulahuen clone C4 of T. cruzi trypomastigotes (ATCC, Manassas, VA, USA). This strain expresses the β-galactosidase enzyme used as a reporter to assess the viability of the trypanosomatid. The parasites were maintained at 37 °C under a 5% CO2 atmosphere in RPMI-1640 culture medium with L-glutamine, 4-(2-Hydroxyethyl)-piperazine-1-ethanesulfonic acid (HEPES) buffer, NaHCO3, 10% FBS, and 0.05% gentamicin (50 mg/mL) as supplements. Vero cells were cultured for 24 h, and one day prior to the experiment, the cells were infected with trypomastigotes. After additional 24 h of infection, bufadienolides were dissolved in DMSO and tested at four different concentrations by duplicate for five days. Benznidazole was used as the positive control. To determine antitrypanosomal activity, 25 µL of chlorophenol-red-β-D-galactopyranoside (Roche Applied Science) (900 µM) were added to each well and allowed to react with the β-galactosidase of the remaining living parasites for 4.5 h. Absorbance was calculated at 570 nm using a microtiter plate reader (Sinergy HT, BioTek Instruments Inc, Winooski, VT, USA).
(§1) All antitrypanosomal and anticancer assays represent independent analysis. The data are presented as the inhibitory concentration (IC50) ± standard error (SE). The statistical analysis for the IC50 values was carried out employing the Data Analysis complement Wizard of Excel 2000 by adjusting the dose-response curve to a sigmoidal model (Microsoft, Seattle, WA, USA).

The next experiment relates to Vero cells. As to the kind of experiment: Mammalian cytotoxicity, MTT assay. The experiment is classed as cell-based, monkey. To be noted: Primates, 120 h, read-out: IC50 Vero. The protocol: For cytotoxicity assays, Vero cells were obtained from the American Type Culture Collection (ATCC, Manassas, VA, USA) and cultivated in 96-well plates at 37 °C under a 5% CO2 atmosphere, using RPMI-1640 medium (Sigma-Aldrich, Saint Louis, MO, USA) sterilized with 0.05% gentamicin (50 mg/mL) and supplemented with 10% FBS (fetal bovine serum; Gibco, Invitrogen, Carlsbad, CA, USA). Vero cells were allowed to adhere for 24 h prior to incubation for five days with the samples. During the treatment, DMSO was used as negative control, and samples were assayed at four different concentrations. After incubation, MTT (3-(4,5-di-methyl-thiazol-2-yl)-2,5-di-phenyl-tetra-zolium bromide) was added to each well, and absorbance was determined 4 h later at 570 nm using a color plate reader. Cytotoxicity was evaluated colorimetrically by calculating the ability of the remnant living Vero cells to reduce the pale yellow MTT into the black-purple formazan product, as described earlier. All bioassays were performed in duplicate and the IC50 values were determined employing the Data Analysis complement Wizard of Excel 2000 (Microsoft, Seattle, WA, USA).

The test system of a further experiment is MCF-7. As to the kind of experiment: Anticancer assay (SRB), MCF-7. The note with it: MCF7, human breast cancer line, 48 h, IC50 ± standard error. The experiment is classed as cell-based. The protocol: (§2) MCF-7, NCI-H460, and SF-268 cancer cells lines were obtained from the American Type Culture Collection (ATCC, Manassas, VA, USA) and cultivated in 96-well plates at 37 °C under a 5% CO2 atmosphere using RPMI-1640 medium (Sigma-Aldrich, USA) sterilized with 0.05% gentamicin (50 mg/mL), supplemented with 10% FBS (fetal bovine serum; Gibco, Invitrogen, Carlsbad, CA, USA), and allowed to adhere for 24 h. After incubation, cancer cells were treated with bufadienolides dissolved in DMSO at five different concentrations and analyzed by duplicate for 48 h. RPMI without cells was used as color control and doxorubicin was used as inhibition control. After treatment, cells were fixed with 25% tricholoroacetic acid (TCA) for 60 min, air dried, and stained with sulforhodamine-B (SRB). Washes with acetic acid at 1% were carried out to eliminate excess of SRB. Tris was added to dissolve the bound SRB. The plate was shaken and absorbance was read at 515 nm using a color plate reader.
as §1

A further experiment relates to NCI-H460. As to the kind of experiment: Anticancer assay (SRB), NCI-H460. The note with it: human lung cancer line, 48 h, IC50 ± standard error. The experiment is classed as cell-based. The protocol: as §2, §1
In another experiment the test system is SF-268. As to the kind of experiment: Anticancer assay (SRB), SF-268. The experiment is classed as cell-based. To be noted: human central nervous system cancer line, 48 h, IC50 ± standard error. The protocol: as §2, §1
Another experiment concerns liver cancer cells. Also noted: method as in PMID 20839128. The note with it: concentration at which growth inhibition was induced; cited from earlier work.
The test system of experiment [2] is T. cruzi trypomastigotes. To be noted: cited from earlier work.
Experiment [3] relates to (Na+-K+) ATPase from T. cruzi. More on the design: method as in PMID 16797482. To be noted: cloned and characterized enzyme; cited from earlier work.
Where [4] appears, read: trypomastigotes, five days treatment, IC50 ± standard error.
Setting [5] is: epithelial cells from monkey kidney (ATCC), five days incubation, MTT, IC50 ± standard error.

For the molecule `CC12CCC(OC(=O)CCCCC(=O)NC(CCCNC(=N)N)C(=O)O)CC1CCC1C2CCC2(C)C(c3ccc(=O)oc3)C(O)CC12O` (stereo not drawn) [Compound 1, 16β-hydroxy-desacetyl-bufotalin-3-adipoyl-arginine ester], the IC50 in the experiment with T. cruzi trypomastigotes [1] is 8000 ± 750 nM; in the experiment with Vero cells, 1890 ± 630 nM.

For `CC(=O)O[C@H]1C[C@]2(O)[C@@H]3CC[C@@H]4C[C@@H](O)CC[C@]4(C)[C@H]3CC[C@]2(C)[C@H]1c1ccc(=O)oc1` [Compound 2, Bufotalin], the IC50 with T. cruzi trypomastigotes [1] (setting [4]) amounted to 19600 ± 3380 nM; in the experiment with Vero cells (setting [5]), 46000 ± 6290 nM; with MCF-7, 94 ± 0.03 nM; with NCI-H460, 229 ± 0.08 nM; in the experiment on SF-268 it was 20500 nM.

Consider `C[C@]12CC[C@H](OC(=O)CCCCCC(=O)NC(CCCNC(=N)N)C(=O)O)CC1CCC1C2CC[C@]2(C)[C@@H](c3ccc(=O)oc3)[C@@H](O)C[C@]12O` (stereo partly drawn) [Compound 3, 16β-hydroxy-desacetyl-bufotalin-3-pimeloyl-arginine ester], for which the IC50 in the experiment with T. cruzi trypomastigotes [1] amounted to 8700 ± 1250 nM; in the experiment on Vero cells it was 240 ± 200 nM.

Consider `CC(=O)O[C@H]1C[C@]2(O)[C@@H]3CC[C@@H]4C[C@@H](OC(=O)CCCCCC(=O)NC(CCCNC(=N)N)C(=O)O)CC[C@]4(C)[C@H]3CC[C@]2(C)[C@H]1c1ccc(=O)oc1` (some centres unmarked) [Compound 4, Bufotalin-3-pimeloyl-arginine ester], for which the results for the IC50 in the experiment on T. cruzi trypomastigotes [1] and in the experiment on Vero cells were 4600 ± 1750 nM and 170 ± 90 nM, respectively. Also, the “growth inhibition against liver cancer cells” value in the experiment on liver cancer cells is on record as 7.24 µM.

As for `C[C@]12CC[C@H](OC(=O)CCCCCCC(=O)NC(CCCNC(=N)N)C(=O)O)CC1CCC1C2CC[C@]2(C)[C@@H](c3ccc(=O)oc3)[C@@H](O)C[C@]12O` (stereo partly drawn) [Compound 5, 16β-hydroxy-desacetyl-bufotalin-3-suberoyl-arginine ester], the figures for the IC50 in the experiment with T. cruzi trypomastigotes [1] and in the experiment on Vero cells were 6900 ± 950 nM and 810 ± 350 nM, respectively.

For `CC(=O)O[C@H]1C[C@]2(O)[C@@H]3CC[C@@H]4C[C@@H](OC(=O)CCCCCCC(=O)NC(CCCNC(=N)N)C(=O)O)CC[C@]4(C)[C@H]3CC[C@]2(C)[C@H]1c1ccc(=O)oc1` (some centres unmarked) [Compound 6, Bufotalin-3-suberoyl-arginine ester], the IC50 stood at 4900 ± 1000 nM in the experiment on T. cruzi trypomastigotes [1] and 340 ± 200 nM in the experiment with Vero cells.

Consider `CC(=O)O[C@H]1[C@H]2O[C@]23[C@@H]2CC[C@@H]4C[C@@H](OC(=O)CCCCC(=O)NC(CCCNC(=N)N)C(=O)O)CC[C@]4(C)[C@H]2CC[C@]3(C)[C@H]1c1ccc(=O)oc1` (some centres unmarked) [Compound 7, Cinobufagin-3-adipoyl-arginine ester], for which the values for the IC50 with T. cruzi trypomastigotes [1] and in the experiment with Vero cells were 16700 ± 2930 nM and 3600 ± 1640 nM, respectively.

In the case of `CC(=O)O[C@H]1[C@H]2O[C@]23[C@@H]2CC[C@@H]4C[C@@H](OC(=O)CCCCCC(=O)NC(CCCNC(=N)N)C(=O)O)CC[C@]4(C)[C@H]2CC[C@]3(C)[C@H]1c1ccc(=O)oc1` (some centres unmarked) [Compound 8, Cinobufagin-3-pimeloyl-arginine ester], the IC50 with T. cruzi trypomastigotes [1] was 14700 ± 1800 nM; in the experiment with Vero cells it was 720 ± 310 nM.

Consider `CC(=O)O[C@H]1[C@H]2O[C@]23[C@@H]2CC[C@@H]4C[C@@H](OC(=O)CCCCCCC(=O)NC(CCCNC(=N)N)C(=O)O)CC[C@]4(C)[C@H]2CC[C@]3(C)[C@H]1c1ccc(=O)oc1` (some centres unmarked) [Compound 9, Cinobufagin-3-suberoyl-arginine ester], for which the IC50 amounted to 19000 ± 5730 nM in the experiment on T. cruzi trypomastigotes [1] and 250 ± 80 nM with Vero cells.

As to `CC(=O)O[C@H]1[C@H]2O[C@]23[C@@H]2CC[C@@H]4C[C@@H](O)CC[C@]4(C)[C@H]2CC[C@]3(C)[C@H]1c1ccc(=O)oc1` [Compound 10, Cinobufagin], the half-inhibitory concentration (IC50) was determined as 29000 ± 2570 nM with T. cruzi trypomastigotes [1] (setting [4]); 54100 ± 4730 nM in the experiment with Vero cells (setting [5]); 9 ± 0.01 nM with MCF-7; 14 ± 0.01 nM in the experiment on NCI-H460; 4680 nM in the experiment on SF-268.

On to `O=C(Cn1ccnc1[N+](=O)[O-])NCc1ccccc1` [benznidazole, reference compound], for which the IC50 with T. cruzi trypomastigotes [1] (setting [4]) was 2730 ± 160 nM.

On to `COc1cccc2c1C(=O)c1c(O)c3c(c(O)c1C2=O)C[C@@](O)(C(=O)CO)C[C@@H]3O[C@H]1C[C@H](N)[C@H](O)[C@H](C)O1` [doxorubicin, reference compound], for which the IC50 came out at 230 ± 40 nM in the experiment with Vero cells (setting [5]), 76 ± 3.01 nM with MCF-7, 59 ± 5.06 nM in the experiment with NCI-H460 and 610 ± 57 nM with SF-268.

For `C[C@]12CC[C@H]3[C@@H](CC[C@]4(O)C[C@@H](O)CC[C@]34C=O)[C@@]1(O)CC[C@@H]2c1ccc(=O)oc1` [hellebrigenin], the “IC50 against T. cruzi trypomastigotes” value in the experiment with T. cruzi trypomastigotes [2] (trypomastigotes, ref Tempone et al. (2008) [13]) is reported as 91.7 µg/mL (≈ 220 µM).

Consider `C[C@@H]1O[C@@H](O[C@H]2C[C@@H](O)[C@]3(CO)[C@H]4[C@H](O)C[C@]5(C)[C@@H](C6=CC(=O)OC6)CC[C@]5(O)[C@@H]4CC[C@]3(O)C2)[C@H](O)[C@H](O)[C@H]1O` [ouabain], for which the “inhibition of enzymatic activity of T. cruzi (Na+-K+) ATPase” value in experiment [3] is recorded as “not inhibited”.

Regarding `C[C@]12CC[C@H](O)C[C@@]1(O)CC[C@@H]1[C@@H]2CC[C@]2(C)[C@@H](c3ccc(=O)oc3)CC[C@]12O` [telocinobufagin], the “IC50 against T. cruzi trypomastigotes” value with T. cruzi trypomastigotes [2] was above 200 µg/mL.
